Measurements from patent US20060275503A1, “Combination treatment with strontium for the prophylaxis and/or treatment of cartilage and/or bone conditions” (Nordic Bone A/S, priority 2003, published 2006).
Blank lines part the entries; values can stand above or below the compound they belong to.

Key:
[1] = Procedure: The solubility of the organic carboxylic acid strontium salts, were measured in water. The solubility of these salts was also measured as a function of temperature. This was performed by incubating the saturated solutions of the salts in temperature controlled incubators.
The buffered solutions were immersed into a bath of water temperature controlled at either room temperature (22-24° C.), at 30° C. or at 40° C. […] In order to eliminate any reminiscent strontium chloride influence on the determination of solubility, all the precipitate was collected at the bottom of the test tubes and the solutions above the precipitate were carefully removed and substituted by fresh solutions. […] From these solutions, the dissolved proportions of the strontium salt were collected in volumes of 1 mL at the specified temperature. The solutions were diluted to 50 mL before analysis by Flame Atomic Absorption Spectrometry (F-AAS).
Two methods were used for quantification of strontium in solutions: Flame Atomic Absorption Spectrometry (F-AAS), and the more sensitive inductively-coupled-plasma-mass spectrometry (ICP-MS).
The solubilities were investigated as described above, and strontium content in the saturated solutions determined as described here below.
Some of the very soluble strontium salts were further diluted before analysis by F-AAS. The measurements were performed by using a Perkin-Elmer 2100 equipped with a hydrogen lamp for correction of the background signal. Strontium was measured at a slit with of 0.2 nm, the wavelength was 460.8 nm operated at an energy of 58 and a current of 8 mA.
This analysis was performed using a Perkin Elmer Elan 5000 system equipped with a cross-flow nebulizer. The power was set at 1000 W and the Argon-gas flow was 12 L/min and 0.8 L/min of the torch and plasma gas, respectively.

[2] = values quoted in scientific literature or reference material such as the Beilstein compendium; cited from earlier work
[3] = molecular target: T1, calcium-sensing receptor (CaR) (Homo sapiens, UniProt P41180); settings: cited from earlier work
T1 sequence (P41180 20-1078): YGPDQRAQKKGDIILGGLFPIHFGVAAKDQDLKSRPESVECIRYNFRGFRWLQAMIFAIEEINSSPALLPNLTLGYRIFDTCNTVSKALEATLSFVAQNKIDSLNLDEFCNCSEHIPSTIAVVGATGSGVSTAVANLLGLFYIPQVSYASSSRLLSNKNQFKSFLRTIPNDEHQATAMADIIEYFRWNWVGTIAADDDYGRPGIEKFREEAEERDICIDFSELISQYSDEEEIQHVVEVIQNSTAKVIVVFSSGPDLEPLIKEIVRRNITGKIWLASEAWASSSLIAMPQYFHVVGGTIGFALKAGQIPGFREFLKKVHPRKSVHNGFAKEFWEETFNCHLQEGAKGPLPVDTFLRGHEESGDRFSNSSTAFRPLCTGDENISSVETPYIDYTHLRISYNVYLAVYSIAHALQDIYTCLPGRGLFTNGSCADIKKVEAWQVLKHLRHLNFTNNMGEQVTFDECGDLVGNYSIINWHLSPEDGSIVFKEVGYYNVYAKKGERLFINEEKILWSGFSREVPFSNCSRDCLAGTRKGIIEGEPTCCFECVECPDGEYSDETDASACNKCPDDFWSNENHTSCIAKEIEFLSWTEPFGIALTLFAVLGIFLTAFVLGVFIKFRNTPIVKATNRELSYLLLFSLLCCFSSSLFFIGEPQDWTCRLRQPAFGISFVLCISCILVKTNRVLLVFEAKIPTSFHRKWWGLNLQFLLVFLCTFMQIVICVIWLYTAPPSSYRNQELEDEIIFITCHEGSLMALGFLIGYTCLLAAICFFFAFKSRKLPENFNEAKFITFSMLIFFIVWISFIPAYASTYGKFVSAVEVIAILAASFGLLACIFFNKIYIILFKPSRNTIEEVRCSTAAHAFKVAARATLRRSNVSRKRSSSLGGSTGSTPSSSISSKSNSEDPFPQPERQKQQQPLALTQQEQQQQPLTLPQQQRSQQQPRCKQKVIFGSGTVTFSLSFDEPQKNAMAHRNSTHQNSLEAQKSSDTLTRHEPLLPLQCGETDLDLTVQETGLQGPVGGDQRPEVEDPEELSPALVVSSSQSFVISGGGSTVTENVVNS

Structure (SMILES): O=C([O-])/C=C\C(=O)[O-].[Sr+2] [Maleate, strontium maleate]
solubility in ammonium carbonate buffered solution of pH 7.5 compared with pure water ([1]; pH 7.5): decreased solubility

SOLUBILITY AT 40° C. (mg/L) In water [1]: 1450 mg/L
SOLUBILITY AT ROOM TEMPERATURE (22-24° C. mg/L) In water [1]: 760 mg/L
SOLUBILITY AT 40° C. (mg/L) pH 7.5 ([1]; pH 7.5): 1970 mg/L
SOLUBILITY AT ROOM TEMPERATURE (22-24° C. mg/L) pH 7.5 ([1]; pH 7.5): 890 mg/L
Structure (SMILES): N#Cc1c(N(CC(=O)[O-])CC(=O)[O-])sc(C(=O)[O-])c1CC(=O)[O-].[Sr+2].[Sr+2] [Ranelate, distrontium salt of 2-[N,N-di(carboxymethyl)amino]-3-cyano-4-carboxymethylthiophene-5-carboxylic acid]

Structure (SMILES): [Cl-].[Cl-].[Sr+2] [SrCl2, strontium chloride]
Solubility, Measured g/L ([1]; commercially available strontium salts, in water at room temperature (22-24)): 240 g/L
Solubility, Expected value 18° C. [2]: 538 mg/mL

Structure (SMILES): [Sr+2] [strontium]
activity at the calcium-sensing receptor (CaR) [3]: full agonist
